Test results taken from patent US20130023045A1, “INDUCED HEPATIC STEM CELL AND PROCESS FOR PRODUCTION THEREOF, AND APPLICATIONS OF THE CELL” (NATIONAL CANCER CENTER, priority 2010, published 2013).

System: induced human hepatic stem cells (AFB1-1, NGC1-2)
Assay: Long-term passage culture of induced human hepatic stem cells
Format: cell-based
Conditions: addition of 0.05-0.5 μM to the medium, passage culture for six months or longer
Excerpt: Induced human hepatic stem cells (AFB1-1, NGC1-2) were subjected to passage culture for six months or longer. The exemplary medium used includes mTeSR1 (STEMCELL Technologies/VERITAS), a bFGF-supplemented medium for primate ES/iPS cells (ReproCELL), or bFGF-supplemented ReproStem (ReproCELL). In the case of using MEFs, a collagen- or gelatin-coated culture dish was used, and in the case of not using MEFs, a matrigel-coated culture dish was used.

Cc1cccc(-c2nn(C(=S)Nc3ccccc3)cc2-c2ccnc3ccccc23)n1 [A-83-01]
proliferation rate and morphology: highly satisfactory proliferation rate and morphology | self-replication of induced human hepatic stem cells: useful for self-replication of induced human hepatic stem cells
